Results published in US8741897B2, “Glucocorticoid mimetics, methods of making them, pharmaceutical compositions and uses thereof” (Boehringer Ingelheim Pharmaceuticals Inc., priority 2003, dated 2014).

What follows are compounds tested on glucocorticoid receptor function (assay: one or more of the above assays (GR binding and glucocorticoid receptor cell assays: aromatase, IL-6, TAT, MMTV-Luc, IL-8, ICAM-Luc)). Settings: assay not specified per compound.
Type: cell-based
Method: B. Glucocorticoid Receptor Cell Assays
1. Induction of Aromatase in Fibroblasts (Cell Assay for Transactivation)
Dexamethasone, a synthetic ligand to the glucocorticoid receptor (GR), induces expression of aromatase in human foreskin fibroblast cells. The activity of aromatase is measured by the conversion of testosterone to estradiol in culture media.
On the day of the experiment, the media in the wells is replaced with fresh media. Cells are treated with test compounds to final concentrations of 10^−5 M to 10^−8 M, and testosterone to a final concentration of 300 ng/mL. Each well has a total volume of 100 μL. Samples are made in duplicates. Control wells include: (a) wells that receive testosterone only, and (b) wells that receive testosterone plus 2 μM of dexamethasone to provide maximum induction of aromatase. Plates are incubated at 37° C. overnight (15 to 18 hours), and supernatants are harvested at the end of incubation. […] The amount of estradiol is inversely proportional to the ELISA signals in each well. The extent of aromatase induction by test compounds is expressed as a relative percentage to dexamethasone. EC50 values of test compounds are derived by non-linear curve fitting.
2. Inhibition of IL-6 Production in Fibroblasts (Cell Assay for Transrepression)
Human foreskin fibroblast cells produce IL-6 in response to stimulation by proinflammatory cytokine IL-1.
On the next day, media in the wells is replaced with fresh media. Cells are treated with IL-1 (rhIL-1α, R&D Systems Cat. No. 200-LA) to a final concentration of 1 ng/mL, and with test compounds to final concentrations of 10^−5 M to 10^−8 M, in a total volume of 200 μL per well. Samples are done in duplicates. […] Positive control wells receive IL-1 only and represent maximum (or 100%) amount of IL-6 production. Plates are incubated at 37° C. overnight (15 to 18 hours), and supernatants are harvested at the end of incubation. IL-6 levels in the supernatants are determined by the ELISA kits for IL-6 (MedSystems Diagnostics GmbH, Vienna, Austria, Cat. No. BMS213TEN) according to manufacture's instructions. The extent of inhibition of IL-6 by test compounds is expressed in percentage relative to positive controls. IC50 values of test compounds are derived by non-linear curve fitting.
Evaluation of agonist or antagonist activity of compounds binding to the glucocorticoid receptor may be determined by any of the assays.
3. Modulation of Tyrosine Aminotransferase (TAT) Induction in Rat Hepatoma Cells
Testing of compounds for agonist or antagonist activity in induction of tyrosine aminotransferase (TAT) in rat hepatoma cells.
H4-II-E-C3 cells were incubated overnight in 96 well plates (20,000 cells/100 μL/well) in MEM medium containing 10% heat inactivated FBS and 1% nonessential amino acids. On the next day, cells were stimulated with the indicated concentrations of dexamethasone or test compound (dissolved in DMSO, final DMSO concentration 0.2%) for 18 hours. Control cells were treated with 0.2% DMSO. After 18 hours, the cells were lysed in a buffer containing 0.1% Triton X-100 and the TAT activity was measured in a photometric assay using tyrosine and alpha-ketoglutarate as substrates.
For measuring antagonist activity, the hepatoma cells were pre-stimulated by addition of dexamethasone (concentration ranges from 3×10^−9 M to 3×10^−8 M) shortly before the test compound was applied to the cells.
4. Modulation of MMTV-Luc Induction in HeLa Cells
Testing of compounds for agonist or antagonist activity in stimulation of MMTV-(mouse mammary tumor virus) promoter in HeLa cells.
Cells were cultured overnight in DMEM medium without phenol red, supplemented with 3% CCS (charcoal treated calf serum) and then transferred to 96 well plates (15,000 cells/100 μL/well).

Row | Structure (SMILES) | activity as agonists of the glucocorticoid receptor function in one or more of the above assays
1 | CC(C)(CC(O)(Cc1cc2nc(Cl)ncc2[nH]1)C(F)(F)F)c1cc(Cl)cc2c1OCC2 (centres unmarked) [4-(5-Chloro-2,3-dihydrobenzofuran-7-yl)-2-(2-chloro-5H-pyrrolo[3,2-d]pyrimidin-6-ylmethyl)-1,1,1-trifluoro-4-methylpentan-2-ol] | potent agonists
2 | CSc1cc2c(c(C(C)(C)CC(O)(Cn3ccc4ncccc43)C(F)(F)F)c1)OCC2 (centres unmarked) [1,1,1-Trifluoro-4-methyl-4-(5-methylsulfanyl-2,3-dihydrobenzofuran-7-yl)-2-pyrrolo[3,2-b]pyridin-1-ylmethylpentan-2-ol] | potent agonists
3 | CC(C)(CC(O)(Cc1[nH]c2ccccc2c1Br)C(F)(F)F)c1cccc(F)c1 (centres unmarked) [2-(3-Bromo-1H-indol-2-ylmethyl)-1,1,1-trifluoro-4-(3-fluorophenyl)-4-methylpentan-2-ol] | potent agonists
4 | COc1cc(F)ccc1C(C)(C)CC(O)(Cc1[nH]c2cnccc2c1C)C(F)(F)F (centres unmarked) [1,1,1-Trifluoro-4-(4-fluoro-2-methoxyphenyl)-4-methyl-2-(3-methyl-1H-pyrrolo[2,3-c]pyridin-2-ylmethyl)pentan-2-ol] | potent agonists
5 | CC(C)(CC(O)(Cc1cc2ncncc2[nH]1)C(F)(F)F)c1ccc(F)cc1O (centres unmarked) [5-Fluoro-2-[4,4,4-trifluoro-3-hydroxy-1,1-dimethyl-3-(5H-pyrrolo[3,2-d]pyrimidin-6-ylmethyl)butyl]phenol] | potent agonists
6 | COc1ccc(Br)cc1C(C)(C)CC(O)(Cc1cc2cc(N3CCCCC3)ncc2[nH]1)C(F)(F)F (centres unmarked) [4-(5-Bromo-2-methoxyphenyl)-1,1,1-trifluoro-4-methyl-2-(5-piperidin-1-yl-1H-pyrrolo[2,3-c]pyridin-2-ylmethyl)pentan-2-ol] | potent agonists
7 | CC(C)(CC(O)(Cn1ccc2c1CCCC2=O)C(F)(F)F)c1cc(-c2cccnc2)ccc1O (centres unmarked) [1-[2-Hydroxy-4-(2-hydroxy-5-pyridin-3-ylphenyl)-4-methyl-2-trifluoromethylpentyl]-1,5,6,7-tetrahydroindol-4-one] | agonists
8 | CC(C)(CC(O)(Cc1cc2cc(-c3ccccn3)ccc2[nH]1)C(F)(F)F)c1cc(Cl)cc2c1OCC2 (centres unmarked) [4-(5-Chloro-2,3-dihydrobenzofuran-7-yl)-1,1,1-trifluoro-4-methyl-2-(5-pyridin-2-yl-1H-indol-2-ylmethyl)pentan-2-ol] | potent agonists
9 | COc1ccc(-c2cccnc2)cc1C(C)(C)CC(O)(Cc1[nH]c2cnccc2c1C)C(F)(F)F (centres unmarked) [1,1,1-Trifluoro-4-(2-methoxy-5-pyridin-3-ylphenyl)-4-methyl-2-(3-methyl-1H-pyrrolo[2,3-c]pyridin-2-ylmethyl)pentan-2-ol] | potent agonists
10 | COc1ccc(-c2cccc(C#N)c2)cc1C(C)(C)CC(O)(Cc1cc2ccncc2[nH]1)C(F)(F)F (centres unmarked) [4′-Methoxy-3′-[4,4,4-trifluoro-3-hydroxy-1,1-dimethyl-3-(1H-pyrrolo[2,3-c]pyridin-2-ylmethyl)butyl]biphenyl-3-carbonitrile] | potent agonists
11 | Cc1ccc(F)cc1C(C)(C)CC(O)(Cc1[nH]c2cnccc2c1C)C(C)(C)C (centres unmarked) [5-(5-Fluoro-2-methylphenyl)-2,2,5-trimethyl-3-(3-methyl-1H-pyrrolo[2,3-c]pyridin-2-ylmethyl)hexan-3-ol] | agonists
12 | CC(C)(CC(O)(Cc1cc2cnccc2[nH]1)C(F)F)c1cc(Cl)cc2c1OCC2 (centres unmarked) [4-(5-Chloro-2,3-dihydrobenzofuran-7-yl)-1,1-difluoro-4-methyl-2-(1H-pyrrolo[3,2-c]pyridin-2-ylmethyl)pentan-2-ol] | agonists
13 | Cc1cc(C#N)cc2[nH]c(CC(O)(CC(C)(C)c3cc(S(C)(=O)=O)cc4c3OCC4)C(F)F)cc12 (centres unmarked) [2-[2-Difluoromethyl-2-hydroxy-4-(5-methanesulfonyl-2,3-dihydrobenzofuran-7-yl)-4-methylpentyl]-4-methyl-1H-indole-6-carbonitrile] | agonists
14 | CC(C)(CC(O)(Cc1cc2cnccc2[nH]1)C(F)(F)F)c1cccc(-c2cncnc2)c1 (centres unmarked) [1,1,1-Trifluoro-4-methyl-4-(3-pyrimidin-5-ylphenyl)-2-(1H-pyrrolo[3,2-c]pyridin-2-ylmethyl)pentan-2-ol] | potent agonists
15 | CC(C)(CC(O)(Cc1cc2nc(CN)ccc2[nH]1)C(F)(F)F)c1cc(Cl)cc2c1OCC2 (centres unmarked) [2-(5-Aminomethyl-1H-pyrrolo[3,2-b]pyridin-2-ylmethyl)-4-(5-chloro-2,3-dihydrobenzofuran-7-yl)-1,1,1-trifluoro-4-methylpentan-2-ol] | potent agonists
16 | Cc1ccc(F)cc1C(C)(C)CC(O)(Cc1cc2c(C)nccc2[nH]1)C(F)(F)F (centres unmarked) [1,1,1-Trifluoro-4-(5-fluoro-2-methylphenyl)-4-methyl-2-(4-methyl-1H-pyrrolo[3,2-c]pyridin-2-ylmethyl)pentan-2-ol] | potent agonists
17 | COc1ccc(Br)cc1C(C)(C)CC(O)(Cc1cc2cc(OC(C)C)ncc2[nH]1)C(F)(F)F (centres unmarked) [4-(5-Bromo-2-methoxyphenyl)-1,1,1-trifluoro-2-(5-isopropoxy-1H-pyrrolo[2,3-c]pyridin-2-ylmethyl)-4-methylpentan-2-ol] | potent agonists
18 | Cc1ccc(F)cc1C(C)(C)CC(O)(Cc1cc2cc(N(C)C(C)C)ncc2[nH]1)C(F)(F)F (centres unmarked) [1,1,1-Trifluoro-4-(5-fluoro-2-methylphenyl)-2-[5-(isopropylmethylamino)-1H-pyrrolo[2,3-c]pyridin-2-ylmethyl]-4-methylpentan-2-ol] | potent agonists
19 | CC(C)(CC(O)(Cc1cc2nc(-c3ccccc3)ncc2[nH]1)C(F)(F)F)c1cc(F)ccc1O (centres unmarked) [4-Fluoro-2-[4,4,4-trifluoro-3-hydroxy-1,1-dimethyl-3-(2-phenyl-5H-pyrrolo[3,2-d]pyrimidin-6-ylmethyl)butyl]phenol] | potent agonists
20 | CC(C)(CC(O)(Cc1cc2cnccc2[nH]1)C(C)(C)C)c1cc(Cl)cc2c1OCC2 (centres unmarked) [5-(5-Chloro-2,3-dihydrobenzofuran-7-yl)-2,2,5-trimethyl-3-(1H-pyrrolo[3,2-c]pyridin-2-ylmethyl)hexan-3-ol] | agonists
21 | COc1ccc(F)cc1C(C)(C)CC(O)(Cn1ccc2c1CCCC2=O)C(F)(F)F (centres unmarked) [1-[4-(5-Fluoro-2-methoxyphenyl)-2-hydroxy-4-methyl-2-trifluoromethylpentyl]-1,5,6,7-tetrahydroindol-4-one] | agonists
22 | CC(C)(CC(O)(Cn1ccc2c1CCCC2=O)C(F)(F)F)c1cc(F)ccc1O (centres unmarked) | agonists
23 | CC(C)(CC(O)(Cc1cc2cnccc2[nH]1)C(F)(F)F)c1cc(S(C)(=O)=O)cc2c1OCC2 (centres unmarked) [1,1,1-Trifluoro4-(5-methanesulfonyl-2,3-dihydrobenzofuran-7-yl)-4-methyl-2-(1H-pyrrolo[3,2-c]pyridin-2-ylmethyl)pentan-2-ol] | potent agonists
